Calls of active or inactive are those of the source. How the calls were made is not given here.
System: CCRIS mutagenicity, Ames/micronucleus/aberration tests
Assay: CCRIS mutagenicity studies
[1] = Test System: AMES SALMONELLA TYPHIMURIUM, Strain/Indicator: TA98, Metabolic Activation: NONE, Method: STANDARD PLATE
[2] = Test System: AMES SALMONELLA TYPHIMURIUM, Strain/Indicator: TA100, Metabolic Activation: NONE, Method: STANDARD PLATE
[3] = Test System: AMES SALMONELLA TYPHIMURIUM, Strain/Indicator: TA98, Metabolic Activation: RAT, LIVER, S-9, AROCLOR 1254, Method: STANDARD PLATE
[4] = Test System: AMES SALMONELLA TYPHIMURIUM, Strain/Indicator: TA100, Metabolic Activation: RAT, LIVER, S-9, AROCLOR 1254, Method: STANDARD PLATE

**Q.** How did the mutagenic call (Test System: AMES SALMONELLA TYPHIMURIUM, Strain/Indicator: TA98(1,8-DNP6), Metabolic Activation: NONE, Method: STANDARD PLATE) turn out when `O=[N+]([O-])c1cccc2c1ccc1ccccc12` was run?
**A.** active; positive

**Q.** And the mutagenic call (Test System: AMES SALMONELLA TYPHIMURIUM, Strain/Indicator: TA98(NR), Metabolic Activation: NONE, Method: STANDARD PLATE)?
**A.** active; positive

**Q.** What about the mutagenic call [1] of the same compound?
**A.** active; positive

**Q.** What about the mutagenic call [2] of the same compound?
**A.** active; positive

**Q.** And the mutagenic call (Test System: AMES SALMONELLA TYPHIMURIUM, Strain/Indicator: YG1021, Metabolic Activation: NONE, Method: STANDARD PLATE)?
**A.** active; positive

**Q.** What about the mutagenic call (Test System: AMES SALMONELLA TYPHIMURIUM, Strain/Indicator: YG1024, Metabolic Activation: NONE, Method: STANDARD PLATE) of the same compound?
**A.** active; positive

**Q.** And the mutagenic call (Test System: AMES SALMONELLA TYPHIMURIUM, Strain/Indicator: YG1026, Metabolic Activation: NONE, Method: STANDARD PLATE)?
**A.** active; positive

**Q.** And the mutagenic call (Test System: AMES SALMONELLA TYPHIMURIUM, Strain/Indicator: YG1029, Metabolic Activation: NONE, Method: STANDARD PLATE)?
**A.** active; positive

**Q.** Which mutagenic call [3] does the source give for `Cc1cnc2cc(C)c3c(nc(N)n3C)c2n1` here?
**A.** active; positive

**Q.** Which mutagenic call [1] does the source give for `NC(=O)CCC(=O)Nc1ccc(Cl)cc1` here?
**A.** inactive; negative

**Q.** What about the mutagenic call [3] of the same compound?
**A.** inactive; negative

**Q.** What about the mutagenic call [2] of the same compound?
**A.** inactive; negative

**Q.** What about the mutagenic call [4] of the same compound?
**A.** inactive; negative

**Q.** How did the mutagenic call (Test System: CHINESE HAMSTER V-79, Strain/Indicator: V-79/OUABAIN, Metabolic Activation: HAMSTER, HEPATOCYTES, Method: CELL-MEDIATED) turn out when `CN(N=O)C(C)(C)C` was run?
**A.** inactive; negative

**Q.** How did the mutagenic call (Test System: AMES SALMONELLA TYPHIMURIUM, Strain/Indicator: TA98, Metabolic Activation: HAMSTER, LIVER, S-9, AROCLOR 1254, Method: STANDARD PLATE) turn out when `CC(=O)c1ccc(S(=O)(=O)NC(=O)NC2CCCCC2)cc1` was run?
**A.** inactive; negative

**Q.** What about the mutagenic call (Test System: AMES SALMONELLA TYPHIMURIUM, Strain/Indicator: TA98, Metabolic Activation: HAMSTER, LIVER, S-9, Method: STANDARD PLATE) of the same compound?
**A.** inactive; negative

**Q.** And the mutagenic call (Test System: AMES SALMONELLA TYPHIMURIUM, Strain/Indicator: TA98, Metabolic Activation: MOUSE, LIVER, S-9, AROCLOR 1254, Method: STANDARD PLATE)?
**A.** inactive; negative

**Q.** And the mutagenic call (Test System: AMES SALMONELLA TYPHIMURIUM, Strain/Indicator: TA98, Metabolic Activation: MOUSE, LIVER, S-9, Method: STANDARD PLATE)?
**A.** inactive; negative

**Q.** What about the mutagenic call [1] of the same compound?
**A.** inactive; negative

**Q.** What about the mutagenic call [3] of the same compound?
**A.** inactive; negative

**Q.** And the mutagenic call (Test System: AMES SALMONELLA TYPHIMURIUM, Strain/Indicator: TA98, Metabolic Activation: RAT, LIVER, S-9, Method: STANDARD PLATE)?
**A.** inactive; negative

**Q.** And the mutagenic call (Test System: AMES SALMONELLA TYPHIMURIUM, Strain/Indicator: TA100, Metabolic Activation: HAMSTER, LIVER, S-9, AROCLOR 1254, Method: STANDARD PLATE)?
**A.** inactive; negative

**Q.** What about the mutagenic call (Test System: AMES SALMONELLA TYPHIMURIUM, Strain/Indicator: TA100, Metabolic Activation: HAMSTER, LIVER, S-9, Method: STANDARD PLATE) of the same compound?
**A.** inactive; negative

**Q.** And the mutagenic call (Test System: AMES SALMONELLA TYPHIMURIUM, Strain/Indicator: TA100, Metabolic Activation: MOUSE, LIVER, S-9, AROCLOR 1254, Method: STANDARD PLATE)?
**A.** inactive; negative

**Q.** What about the mutagenic call (Test System: AMES SALMONELLA TYPHIMURIUM, Strain/Indicator: TA100, Metabolic Activation: MOUSE, LIVER, S-9, Method: STANDARD PLATE) of the same compound?
**A.** inactive; negative

**Q.** What about the mutagenic call [2] of the same compound?
**A.** inactive; negative

**Q.** And the mutagenic call [4]?
**A.** inactive; negative

**Q.** What about the mutagenic call (Test System: AMES SALMONELLA TYPHIMURIUM, Strain/Indicator: TA100, Metabolic Activation: RAT, LIVER, S-9, Method: STANDARD PLATE) of the same compound?
**A.** inactive; negative

**Q.** And the mutagenic call (Test System: AMES SALMONELLA TYPHIMURIUM, Strain/Indicator: TA1535, Metabolic Activation: HAMSTER, LIVER, S-9, AROCLOR 1254, Method: STANDARD PLATE)?
**A.** inactive; negative

**Q.** What about the mutagenic call (Test System: AMES SALMONELLA TYPHIMURIUM, Strain/Indicator: TA1535, Metabolic Activation: HAMSTER, LIVER, S-9, Method: STANDARD PLATE) of the same compound?
**A.** inactive; negative

**Q.** And the mutagenic call (Test System: AMES SALMONELLA TYPHIMURIUM, Strain/Indicator: TA1535, Metabolic Activation: MOUSE, LIVER, S-9, AROCLOR 1254, Method: STANDARD PLATE)?
**A.** inactive; negative

**Q.** What about the mutagenic call (Test System: AMES SALMONELLA TYPHIMURIUM, Strain/Indicator: TA1535, Metabolic Activation: MOUSE, LIVER, S-9, Method: STANDARD PLATE) of the same compound?
**A.** inactive; negative

**Q.** What about the mutagenic call (Test System: AMES SALMONELLA TYPHIMURIUM, Strain/Indicator: TA1535, Metabolic Activation: NONE, Method: STANDARD PLATE) of the same compound?
**A.** inactive; negative

**Q.** What about the mutagenic call (Test System: AMES SALMONELLA TYPHIMURIUM, Strain/Indicator: TA1535, Metabolic Activation: RAT, LIVER, S-9, AROCLOR 1254, Method: STANDARD PLATE) of the same compound?
**A.** inactive; negative

**Q.** And the mutagenic call (Test System: AMES SALMONELLA TYPHIMURIUM, Strain/Indicator: TA1535, Metabolic Activation: RAT, LIVER, S-9, Method: STANDARD PLATE)?
**A.** inactive; negative

**Q.** What about the mutagenic call (Test System: AMES SALMONELLA TYPHIMURIUM, Strain/Indicator: TA1537, Metabolic Activation: HAMSTER, LIVER, S-9, AROCLOR 1254, Method: STANDARD PLATE) of the same compound?
**A.** inactive; negative

**Q.** And the mutagenic call (Test System: AMES SALMONELLA TYPHIMURIUM, Strain/Indicator: TA1537, Metabolic Activation: HAMSTER, LIVER, S-9, Method: STANDARD PLATE)?
**A.** inactive; negative

**Q.** And the mutagenic call (Test System: AMES SALMONELLA TYPHIMURIUM, Strain/Indicator: TA1537, Metabolic Activation: MOUSE, LIVER, S-9, AROCLOR 1254, Method: STANDARD PLATE)?
**A.** inactive; negative

**Q.** And the mutagenic call (Test System: AMES SALMONELLA TYPHIMURIUM, Strain/Indicator: TA1537, Metabolic Activation: MOUSE, LIVER, S-9, Method: STANDARD PLATE)?
**A.** inactive; negative

**Q.** And the mutagenic call (Test System: AMES SALMONELLA TYPHIMURIUM, Strain/Indicator: TA1537, Metabolic Activation: NONE, Method: STANDARD PLATE)?
**A.** inactive; negative

**Q.** What about the mutagenic call (Test System: AMES SALMONELLA TYPHIMURIUM, Strain/Indicator: TA1537, Metabolic Activation: RAT, LIVER, S-9, AROCLOR 1254, Method: STANDARD PLATE) of the same compound?
**A.** inactive; negative

**Q.** And the mutagenic call (Test System: AMES SALMONELLA TYPHIMURIUM, Strain/Indicator: TA1537, Metabolic Activation: RAT, LIVER, S-9, Method: STANDARD PLATE)?
**A.** inactive; negative

**Q.** And the mutagenic call (Test System: AMES SALMONELLA TYPHIMURIUM, Strain/Indicator: TA1538, Metabolic Activation: HAMSTER, LIVER, S-9, AROCLOR 1254, Method: STANDARD PLATE)?
**A.** inactive; negative

**Q.** What about the mutagenic call (Test System: AMES SALMONELLA TYPHIMURIUM, Strain/Indicator: TA1538, Metabolic Activation: HAMSTER, LIVER, S-9, Method: STANDARD PLATE) of the same compound?
**A.** inactive; negative

**Q.** And the mutagenic call (Test System: AMES SALMONELLA TYPHIMURIUM, Strain/Indicator: TA1538, Metabolic Activation: MOUSE, LIVER, S-9, AROCLOR 1254, Method: STANDARD PLATE)?
**A.** inactive; negative

**Q.** What about the mutagenic call (Test System: AMES SALMONELLA TYPHIMURIUM, Strain/Indicator: TA1538, Metabolic Activation: MOUSE, LIVER, S-9, Method: STANDARD PLATE) of the same compound?
**A.** inactive; negative

**Q.** And the mutagenic call (Test System: AMES SALMONELLA TYPHIMURIUM, Strain/Indicator: TA1538, Metabolic Activation: NONE, Method: STANDARD PLATE)?
**A.** inactive; negative

**Q.** And the mutagenic call (Test System: AMES SALMONELLA TYPHIMURIUM, Strain/Indicator: TA1538, Metabolic Activation: RAT, LIVER, S-9, AROCLOR 1254, Method: STANDARD PLATE)?
**A.** inactive; negative

**Q.** And the mutagenic call (Test System: AMES SALMONELLA TYPHIMURIUM, Strain/Indicator: TA1538, Metabolic Activation: RAT, LIVER, S-9, Method: STANDARD PLATE)?
**A.** inactive; negative

**Q.** What about the mutagenic call (Test System: E. COLI, Strain/Indicator: WP2 UVRA, Metabolic Activation: HAMSTER, LIVER, S-9, AROCLOR 1254, Method: STANDARD PLATE) of the same compound?
**A.** inactive; negative

**Q.** What about the mutagenic call (Test System: E. COLI, Strain/Indicator: WP2 UVRA, Metabolic Activation: HAMSTER, LIVER, S-9, Method: STANDARD PLATE) of the same compound?
**A.** inactive; negative

**Q.** And the mutagenic call (Test System: E. COLI, Strain/Indicator: WP2 UVRA, Metabolic Activation: MOUSE, LIVER, S-9, AROCLOR 1254, Method: STANDARD PLATE)?
**A.** inactive; negative

**Q.** And the mutagenic call (Test System: E. COLI, Strain/Indicator: WP2 UVRA, Metabolic Activation: MOUSE, LIVER, S-9, Method: STANDARD PLATE)?
**A.** inactive; negative

**Q.** What about the mutagenic call (Test System: E. COLI, Strain/Indicator: WP2 UVRA, Metabolic Activation: NONE, Method: STANDARD PLATE) of the same compound?
**A.** inactive; negative

**Q.** What about the mutagenic call (Test System: E. COLI, Strain/Indicator: WP2 UVRA, Metabolic Activation: RAT, LIVER, S-9, AROCLOR 1254, Method: STANDARD PLATE) of the same compound?
**A.** inactive; negative

**Q.** What about the mutagenic call (Test System: E. COLI, Strain/Indicator: WP2 UVRA, Metabolic Activation: RAT, LIVER, S-9, Method: STANDARD PLATE) of the same compound?
**A.** inactive; negative
